No end group written: not given here.
Columns and labels:
[1] = tested on: luciferase positive splenic T cells (B6 Luc); test: One-way allogeneic MLR, B6 Luc T cells with irradiated B6 Albino stimulator cells, IVIS average radiance; type: cell-based, mouse
Protocol: Bioluminescent image of a 96-well MLR plate.
A one-way allogeneic mixed lymphocyte reaction (MLR) between luciferase positive splenic T cells (B6 Luc) and 20 Gy irradiated stimulator cells from B6 Albino mice were co-cultured at 37° C. in a 96-well black plate. VIPhyb-NP in concentrations 0-2.5 uM was added to each well, followed by VIP in concentrations of 0-10 uM, 30 minutes later. This treatment was administered daily for 3 days, and an IVIS spectrum was used to quantify photon intensity, which correlates to cell number, on day 3. An increase in average radiance indicates an increase in T cell proliferation.

[2] = tested on: luciferase-expressing splenic T cells from B6 Luciferase mice; test: Bioluminescent MLR, B6 Luciferase splenic T cells with irradiated FVB splenic T cells (VIP, VIPhyb, VIPhyb-NP); type: cell-based, mouse; conditions: 0 ug/mL to 975 ug/mL
Source text: Splenocytes were extracted from WT and VIP-KO mice treated with B16-F0 and B16-F10 melanoma, and analyzed with flow cytometry for Granzyme B (GrZ B) and CD8 expression. VIPhyb was conjugated to a biocompatible, non-toxic 30 nm NP through emulsion polymerization and tested for purity and stability. A mixed lymphocyte reaction (MLR) using luciferase-expressing splenic T cells from B6 Luciferase mice were co-cultured with irradiated splenic T cells from FVB mice. VIP, VIPhyb, and VIPhyb-NP at concentrations of 0 ug/mL to 975 ug/mL were added to the MLR on 3 consecutive days and their effect on T cell proliferation assessed with bioluminescent imaging.

[3] = cited from earlier work
[4] = tested on: luciferase B6 splenic T cells; test: One-way mixed lymphocyte reaction (MLR), luciferase B6 splenic T cells with irradiated FVB splenocytes; type: cell-based, mouse; conditions: 3 days, daily addition of VIP and/or VIPhyb, 0-10 mmol/L [sic]
Protocol: Proliferation of luciferase B6 splenic T cells cultured for 3 days in MLR with irradiated FVB splenocytes, with daily addition of VIP and/or VIPhyb to achieve the concentrations shown (0-10 mmol/L).
To explore the role of VIP signaling in allo-immune responses, one-way mixed lymphocyte reactions (MLR) were performed containing VIP and/or the antagonistic VIPhyb peptide. Addition of VIP decreased Luciferase T-cell proliferation in a dose-dependent manner, while adding VIPhyb increased T-cell proliferation.

[5] = tested on: senescent T cells from a patient with lymphoma; test: 10 day in vitro culture of senescent lymphoma patient T cells with anti-CD3/CD28 beads, flow cytometric analysis; type: cell-based, human; conditions: for fraction of senescent T cells that lacked both CD27 and CD28: control 55.2%; for in vitro expansion of senescent T cells: as single agent or in combination
Protocol: Monocytes were depleted from the T cell sample, as monocytes are known to inhibit T cell expansion in cultures containing anti-CD3/CD28 beads. The effect of a range of idelalisib concentrations were compared alone and in combination with 3 uM VIP peptide antagonist (VIPhyb) or 1 ug/ml mast cell chymase, an enzyme that degrades endogenous VIP on T cell activation, differentiation and proliferation. Numbers of viable T cells were measured during a 10 day in vitro cultures as well as the T cell differentiation and activation profiles, focusing on the relative numbers of T cells with a senescent phenotype in which co-stimulatory receptors CD27 and CD28 are both absent (CD27−CD28−), to an activated phenotype, in which either CD27, CD28, or both co-stimulatory receptors are present (CD27+CD28+).
Aliquots of frozen patient apheresis products or PBMC from ficolled whole blood were rapidly thawed and rested overnight in complete RPMI 1640 supplemented with 10% fetal bovine serum, 100 U/mL penicillin, 100 μg/mL streptomycin, and 50 μM 2-mercaptoethanol (complete media). The following day, red blood cells were removed from apheresis products by ficoll gradient. The leukocytes were then enriched for T cells using an EasySep human T cell enrichment kit according to manufacturer's instructions. Cells were plated in 200 μL of complete media in each well of a 96 well flat-bottom plate. Compounds were added at the indicated concentrations, and the DMSO concentration was normalized to 0.1% for all wells. Anti-CD3/CD28 beads were added at a 1:1 bead:cell ratio. On day 7 post-stimulation, cells from each treatment were transferred to new media. Fresh compounds and beads were then added, and the cells were cultured for an additional 3 days. On day 10 post-initial stimulation, the beads were removed, and the cells were stained for flow cytometric analysis.
Cells were washed twice in PBS. The cells were also stained using a fixable viability dye. Surface markers were then stained by adding fluorochrome-conjugated antibodies to CD3, CD4, CD8, CD27, CD28, CD45RA, CD45RO, PD-1, and CCR7. To assess proliferation, half the cells were evaluated for expression of Ki67. Ki67 staining was performed using a FoxP3 intracellular staining kit. Just prior to running samples, Accucheck™ counting beads were added to each tube. Samples were acquired on a BD FACS Aria, and analysis was performed using FlowJo™ software. Viable cells were used in the analysis. The absolute numbers of cells was calculated for each population according to instructions provided by the manufacturer of the Accucheck™ counting beads.

Bcl-2 = Bcl-2 blot of protein lysates from patient T cell expansion cultures; type: cell-based, human; conditions: lysates on days 7 and 14; actin loading control
Protocol: Protein lysates from patient T cell expansion cultures were prepared on days 7 and 14. Samples were run on an SDS-PAGE gel prior to transfer to a nitrocellulose membrane. The membrane was then probed for the pro-survival Bcl-2 protein, stripped, and then re-probed for actin as a loading control.

DLBCL patient T cells = test: DLBCL patient T cell expansion for 14 days with CD3/CD28 beads and IL-2; type: cell-based, human
E.G7-OVA cells = test: E.G7-OVA lymphoma model, adoptive transfer of T cells expanded with the compounds; type: in vivo, Mice; conditions: OVA-expressing lymphoma model; T cells expanded 3 days with CD3/CD28 beads and IL-2, injected intravenously on day 7 of tumor growth
Protocol: Mice were injected subcutaneously with 5×10^5 E.G7-OVA cells that were allowed to grow for 7 days until a palpable tumor formed. During this period, OT-I, OT-II, and B6 T cells were expanded with CD3/CD28 beads in the presence of IL-2 and the indicated compounds for 3 days. On day 7 of tumor growth, mice were injected intravenously with a combination of expanded OT-I, OT-II, and B6 T cells (2×10^6 OT-I, 1×10^6 OT-II, and 2×10^6 B6 cells) or 2×10^6 B6 T cells as a control. Mice were then monitored for tumor growth that was calculated as (L×W^2)/2. FIG. 5B is a tumor growth curve showing the rate of growth among groups over time. Expansion of mouse T cells in the presence of Idelalisib, VIPhyb, or a combination of both enhances their therapeutic efficacy in an OVA-expressing lymphoma model.

[6] = tested on: T-cells from the anergic lymphoma patient; test: Culture of sorted lymphoma patient T-cells with anti-CD3/anti-CD28 beads (Ki67, PD-1 by flow cytometry); type: cell-based, human; conditions: addition of IL 12 to the cultures
Source text: Using high-speed cell sorting subsets of T-cells were isolated defined by their levels of CD27 and CD28 expression from the patient with relapsed lymphoma and a healthy control. CD3 positive T-cells with each of the four phenotypes defined by CD27 and CD28 expression were sorted and cultured in vitro in the presence of anti-CD^3/anti-CD28 beads. Total T-cells from healthy donors had 100% expression of the Ki67 proliferation marker following four days of culture. However, the corresponding total T-cell population from the patient with anergic T-cells following treatment for lymphoma had only 90% of T-cells expressing the Ki67 marker.
Following the daily addition of 3 uM VIPhyb to these cultures, the proportion of Ki67 positive T-cells from the anergic lymphoma patient was increased to 100%. […] In contrast, the T-cell subsets lacking expression of either CD27 or CD28 or both markers had impaired proliferated response when incubated with the anti-CD3/CD28 beads.
Addition of the antagonist VIPhyb augmented T-cell proliferation in the subsets lacking either CD27 or CD28.

[7] = inclusion during T cell activation

## VIPhyb-NP: VIPhyb with C-terminal linker (SEQ ID NO: 13) conjugated to a 30 nm poloxamer-stabilized polypropylene sulfide nanoparticle (KPRRPYTDNYTRLRKQMAVKKYLNSILNGGGGSC; also: conjugated to polypropylene sulfide nanoparticle)
[1]; VIPhyb-NP 0-2.5 uM daily for 3 days, read on day 3
  average radiance (T cell proliferation): significant dose-dependent increase
[1]; VIPhyb-NP 0-2.5 uM, then VIP 0-10 uM 30 minutes later
  effect on immunosuppressive effects of VIP: able to counteract the immunosuppressive effects of VIP
[2]
  dose dependence of effect on T cell proliferation: dose-dependent
[2]; added on 3 consecutive days
  effect on inhibitory effects of VIP on T cell proliferation in vitro: counteracted the inhibitory effects of VIP

## HSDAVFTDNYTRLRKQMAVKKYLNSILN [VIP]
[3]
  half-life in vivo: less than two
[4]
  T-cell proliferation in MLR: decreased

## CC[C@H](Nc1ncnc2[nH]cnc12)c1nc2cccc(F)c2c(=O)n1-c1ccccc1 [idelalisib, (S)-2-(1-(9H-purin-6-ylamino)propyl)-5-fluoro-3-phenylquinazolin-4(3H)-one]
[5]; 10 nM idelalisib
  fraction of senescent T cells that lacked both CD27 and CD28: 16.1%
[5]; 10-day cultures
  numbers of effector memory T cells (Tem): increased
[5]
  in vitro expansion of senescent T cells: significantly expanded
[5]; idelalisib 1 uM or 100 nM, compared to control cultures
  proportion of T cells co-expressing CD27 and CD28: significantly increased
Bcl-2
  expression of Bcl-2 in lymphoma patient T cells: increased
DLBCL patient T cells
  frequency of CD27+CD28+ cells: increases
  frequency of CD27−CD28− cells: decreasing
DLBCL patient T cells; [7]
  number of viable T cells obtained: increases
  proportion of naïve and central memory cells: increases
E.G7-OVA cells
  therapeutic efficacy of mouse T cells expanded in presence of the compounds: enhances

B1: mast cell chymase: human mast cell chymase (CMA1), an enzyme that degrades endogenous VIP (protein, UniProt P23946 22-247, looked up)
Chymase: IIGGTECKPHSRPYMAYLEIVTSNGPSKFCGGFLIRRNFVLTAAHCAGRSITVTLGAHNITEEEDTWQKLEVIKQFRHPKYNTSTLHHDIMLLKLKEKASLTLAVGTLPFPSQFNFVPPGRMCRVAGWGRTGVLKPGSDTLQEVKLRLMDPQACSHFRDFDHNLQLCVGNPRKTKSAFKGDSGGPLLCAGVAQGIVSYGRSDAKPPAVFTRISHYRPWINQILQAN
[5]; 1 μg per ml mast cell chymase
  fraction of senescent T cells that lacked both CD27 and CD28: 37.4%
[5]
  in vitro expansion of senescent T cells: significantly expanded

B2: IL 12: IL 12 added to T-cell cultures (protein, UniProt P29459 23-219; P29460 23-328, looked up)
Interleukin-12 subunit alpha: RNLPVATPDPGMFPCLHHSQNLLRAVSNMLQKARQTLEFYPCTSEEIDHEDITKDKTSTVEACLPLELTKNESCLNSRETSFITNGSCLASRKTSFMMALCLSSIYEDLKMYQVEFKTMNAKLLMDPKRQIFLDQNMLAVIDELMQALNFNSETVPQKSSLEEPDFYKTKIKLCILLHAFRIRAVTIDRVMSYLNAS
Interleukin-12 subunit beta: IWELKKDVYVVELDWYPDAPGEMVVLTCDTPEEDGITWTLDQSSEVLGSGKTLTIQVKEFGDAGQYTCHKGGEVLSHSLLLLHKKEDGIWSTDILKDQKEPKNKTFLRCEAKNYSGRFTCWWLTTISTDLTFSVKSSRGSSDPQGVTCGAATLSAERVRGDNKEYEYSVECQEDSACPAAEESLPIEVMVDAVHKLKYENYTSSFFIRDIIKPDPPKNLQLKPLKNSRQVEVSWEYPDTWSTPHSYFSLTFCVQVQGKSKREKKDRVFTDKTSATVICRKNASISVRAQDRYYSSSWSEWASVPCS
[6]
  proliferation fraction of T-cells, CD28 negative and CD27 negative subsets: significant impact in increasing the proliferation fraction of T-cells that were CD28 negative but not those that were CD27 negative

— patent US11850263B2, “Nanoparticles conjugated with vasoactive intestinal peptide antagonists” (Emory University, priority 2017, dated 2023)
